Here are results for four molecules from PMC4128571 (Drug testing and analysis, 2014).

What is called EC50 is the midpoint of the concentration-response curve.

The structures appear in SMILES notation.

Common to all, as to type: biochemical
Test [1] has as its target norepinephrine transporters (NET) (Rattus norvegicus, UniProt Q63380). The following applies: rat brain synaptosomes.
The next test addresses 5-HT transporters (SERT) (Rattus norvegicus, UniProt P31652). The following applies: for Efficacy to evoke release at SERT (of maximal release): rat brain synaptosomes.
Test [2] has as its target dopamine transporters (DAT) (Rattus norvegicus, UniProt P23977). The following applies: for DAT/SERT ratio: (EC50 at DAT)^-1/(EC50 at SERT)^-1, higher value indicates greater DAT selectivity; for Efficacy to evoke release at DAT (of maximal release): rat brain synaptosomes.

Chain of 5-HT transporters (SERT) (P31652 whole entry): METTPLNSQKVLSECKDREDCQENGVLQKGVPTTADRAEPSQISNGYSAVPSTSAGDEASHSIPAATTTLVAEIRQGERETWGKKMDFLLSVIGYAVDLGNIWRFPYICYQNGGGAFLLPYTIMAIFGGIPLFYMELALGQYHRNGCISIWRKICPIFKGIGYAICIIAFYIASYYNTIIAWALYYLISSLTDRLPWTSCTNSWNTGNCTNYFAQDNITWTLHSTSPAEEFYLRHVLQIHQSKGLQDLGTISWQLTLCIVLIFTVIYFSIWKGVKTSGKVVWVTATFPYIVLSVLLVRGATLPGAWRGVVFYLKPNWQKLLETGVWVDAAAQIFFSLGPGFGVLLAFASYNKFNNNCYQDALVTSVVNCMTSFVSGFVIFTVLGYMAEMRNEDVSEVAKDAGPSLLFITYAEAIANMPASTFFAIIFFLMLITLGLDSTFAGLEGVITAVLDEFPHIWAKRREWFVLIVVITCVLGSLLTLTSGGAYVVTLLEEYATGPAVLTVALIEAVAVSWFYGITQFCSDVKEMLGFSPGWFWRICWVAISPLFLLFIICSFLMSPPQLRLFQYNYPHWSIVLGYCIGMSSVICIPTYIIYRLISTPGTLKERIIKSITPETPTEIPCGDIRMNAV
Chain of dopamine transporters (DAT) (P23977 whole entry): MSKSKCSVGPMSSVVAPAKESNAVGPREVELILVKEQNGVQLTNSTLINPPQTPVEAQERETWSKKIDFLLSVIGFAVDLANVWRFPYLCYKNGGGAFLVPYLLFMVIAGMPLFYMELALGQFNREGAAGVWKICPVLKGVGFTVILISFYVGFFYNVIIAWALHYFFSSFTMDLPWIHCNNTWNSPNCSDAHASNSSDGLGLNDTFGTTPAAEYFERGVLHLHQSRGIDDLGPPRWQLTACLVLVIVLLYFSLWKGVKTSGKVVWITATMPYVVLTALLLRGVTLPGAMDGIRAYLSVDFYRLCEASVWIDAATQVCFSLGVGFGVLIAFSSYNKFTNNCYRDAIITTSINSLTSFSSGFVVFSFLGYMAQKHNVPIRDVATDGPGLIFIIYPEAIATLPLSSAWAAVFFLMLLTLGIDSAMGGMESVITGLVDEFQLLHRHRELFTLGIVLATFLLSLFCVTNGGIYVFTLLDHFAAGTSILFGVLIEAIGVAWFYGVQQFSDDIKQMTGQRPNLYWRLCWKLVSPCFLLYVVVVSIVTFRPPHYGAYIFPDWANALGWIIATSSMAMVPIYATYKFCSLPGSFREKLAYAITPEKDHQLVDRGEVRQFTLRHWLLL
Chain of norepinephrine transporters (NET) (Q63380 1-617): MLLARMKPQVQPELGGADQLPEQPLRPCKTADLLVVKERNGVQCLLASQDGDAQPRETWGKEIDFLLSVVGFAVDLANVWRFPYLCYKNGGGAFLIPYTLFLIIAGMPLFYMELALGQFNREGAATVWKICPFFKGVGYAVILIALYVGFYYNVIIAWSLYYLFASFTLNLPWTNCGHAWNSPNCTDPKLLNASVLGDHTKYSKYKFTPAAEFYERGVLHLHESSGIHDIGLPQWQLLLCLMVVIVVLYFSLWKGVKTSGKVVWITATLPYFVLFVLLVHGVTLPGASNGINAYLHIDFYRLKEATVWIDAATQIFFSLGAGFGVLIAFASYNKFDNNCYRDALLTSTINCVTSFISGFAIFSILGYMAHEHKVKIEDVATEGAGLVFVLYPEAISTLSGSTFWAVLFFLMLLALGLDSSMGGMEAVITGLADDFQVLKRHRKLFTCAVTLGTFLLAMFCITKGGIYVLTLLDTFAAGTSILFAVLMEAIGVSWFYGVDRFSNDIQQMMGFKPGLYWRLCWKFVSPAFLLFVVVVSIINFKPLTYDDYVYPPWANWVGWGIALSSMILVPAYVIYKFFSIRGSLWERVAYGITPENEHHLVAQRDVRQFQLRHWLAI

Consider `Cc1ccc([C@H]2OC(N)=N[C@H]2C)cc1` (racemic) [(±)-cis-4,4'-DMAR, (±)-cis-4-Methyl-5-(4-methylphenyl)-4,5-dihydrooxazol-2-amine], for which the “Efficacy to evoke release at NET (of maximal release)” value (“Efficacy to evoke release at NET” below) in test [1] is reported as “fully efficacious”. Further, the “Efficacy to evoke release at SERT (of maximal release)” value (“Efficacy to evoke release at SERT” below) at 5-HT transporters (SERT) is “fully efficacious”. Moreover, in test [2], the DAT/SERT ratio is 2 and the “Efficacy to evoke release at DAT (of maximal release)” value (shortened to “Efficacy to evoke release at DAT”) is on record as “fully efficacious”.
`C[C@@H]1N=C(N)O[C@@H]1c1ccccc1` (racemic) [(±)-cis-4-MAR, (±)-cis-4-methylaminorex]: the “Efficacy to evoke release at NET” value in test [1] is “fully efficacious”. For the same molecule, the “Efficacy to evoke release at SERT” value at 5-HT transporters (SERT) is listed as “fully efficacious”. Moreover, in test [2], the DAT/SERT ratio is recorded as 31 and the “Efficacy to evoke release at DAT” value is reported as “fully efficacious”.
Regarding `NC1=NCC(c2ccccc2)O1` (stereo not drawn) [Aminorex, 5-phenyl-4,5-dihydrooxazol-2-amine], the “Efficacy to evoke release at NET” value in test [1] is listed as “fully efficacious”. Also, on 5-HT transporters (SERT), the response was half-maximal at 414 ± 78 nM (EC50) and the “Efficacy to evoke release at SERT” value is “fully efficacious”. Moreover, in test [2], the 50% effective concentration (EC50) came to 9.1 ± 0.9 nM, the DAT/SERT ratio was 45 and the “Efficacy to evoke release at DAT” value was “fully efficacious”.
As for `C[C@H](N)Cc1ccccc1` [d-Amphetamine], the “Efficacy to evoke release at NET” value in test [1] is given as “fully efficacious”.
